The values below come from article PMC12096669, “Structural isomerisation affects the antitubercular activity of adamantyl-isoxyl adducts” (Journal of Enzyme Inhibition and Medicinal Chemistry, 2025).

Values after ≈ are worked out from the molar mass of the structure shown. Where two headings read alike, the source gives them in different places.

Assay [1] relates to M. smegmatis mc^2155 mmpL3 knockout strain expressing MmpL3-Mtb-G253E. Details: method as in PMID 22344175. Conditions: M. smegmatis mc^2155, MmpL3-Mtb-G253E in a mmpL3 knockout strain; cited from earlier work.
The subject of another assay is Mtb mc^28245 pMV261. Nature of the assay: microbe, parasite or virus in culture. It counts as cell-based.
For another assay, the system named is Mtb mc^28247 pMV261. Nature of the assay: microbe, parasite or virus in culture. It counts as cell-based.
A further assay relates to Mtb mc^28250 pMV261. Nature of the assay: microbe, parasite or virus in culture. The format is cell-based.
The next assay relates to Mtb mc^28256 pMV261. Nature of the assay: microbe, parasite or virus in culture. Conditions: Mycobacterium tuberculosis, read-out: Mtb MIC95. The format is cell-based.
The test system of assay [2] is Mtb mc^27092 pMV261-desA3. Nature of the assay: microbe, parasite or virus in culture. It counts as cell-based. Particulars: Mycobacterium tuberculosis, read-out: Mtb MIC95.
In assay [3] the test system is Mtb mc^27092 pMV261-hadABC. Nature of the assay: microbe, parasite or virus in culture. The format is cell-based. Conditions: Mycobacterium tuberculosis, read-out: Mtb MIC95.
Assay [4] concerns Mtb mc^27092 pMV261-mmpL3. Nature of the assay: microbe, parasite or virus in culture. It counts as cell-based, Mycobacterium tuberculosis. Particulars: for MIC: Mycobacterium tuberculosis, read-out: Mtb MIC95.
Assay [5] concerns Mtb mc^27092 pMV261- ethA. Nature of the assay: microbe, parasite or virus in culture. Particulars: Mycobacterium tuberculosis, read-out: Mtb MIC95. The format is cell-based.
The test system of assay [6] is Mtb mc^27092 pMV261-pks13. Nature of the assay: microbe, parasite or virus in culture. It counts as cell-based. Particulars: Mycobacterium tuberculosis, read-out: Mtb MIC95.
Setting [7] is: Mycobacterium tuberculosis; read-out: Mtb MIC95.
The mark [8] stands for this setting: Mycobacterium tuberculosis, read-out: Mtb MIC95.

For `O=C(Nc1ccc(F)c(F)c1F)NC1C2CC3CC(C2)CC1C3` (stereo not shown) [AU1235], the “increase in the resistance” value in assay [1] is 2 fold.

Consider `CC(C)CCOc1ccc(NC(=S)NC23CC4CC(CC(C4)C2)C3)cc1` [Ad-1-ISO, 1-((3s,5s,7s)-adamantan-1-yl)-3–(4-(isopentyloxy)phenyl)thiourea], for which the MIC with Mtb mc^28245 pMV261 (setting [7]) turned out to be 1.11 µg/mL (≈ 2.98 µM); with Mtb mc^28247 pMV261 (setting [7]), 1.08 µg/mL (≈ 2.9 µM); with Mtb mc^28250 pMV261 (setting [7]), 1.12 µg/mL (≈ 3.01 µM); in the assay with Mtb mc^28256 pMV261 (mc^28256 pMV261, REMA) it was 1.13 µg/mL (≈ 3.03 µM); in [2] (mc^27092 pMV261-desA3, REMA), 1.07 µg/mL (≈ 2.87 µM); in assay [3] (mc^27092 pMV261-hadABC, REMA), 1.09 µg/mL (≈ 2.93 µM). The MIC was determined as 1.16 µg/mL (≈ 3.11 µM) in [4] (mc^27092 pMV261-mmpL3, REMA); 1.2 µg/mL (≈ 3.22 µM) in [5] (mc^27092 pMV261- ethA, REMA); 1.11 µg/mL (≈ 2.98 µM) in assay [6] (mc^27092 pMV261-pks13, REMA).

For the compound `CC(C)CCOc1ccc(NC(=S)NC2C3CC4CC(C3)CC2C4)cc1` (stereo not shown) [Ad-2-ISO, 1-((1r,3r,5r,7r)-adamantan-2-yl)-3–(4-(isopentyloxy)phenyl)thiourea], the MIC with Mtb mc^28245 pMV261 (setting [7]) stood at 3.55 µg/mL (≈ 9.53 µM); with Mtb mc^28247 pMV261 (setting [7]), 2.5 µg/mL (≈ 6.71 µM); in the assay on Mtb mc^28250 pMV261 (setting [7]), 3.1 µg/mL (≈ 8.32 µM); with Mtb mc^28256 pMV261 (mc^28256 pMV261, REMA) it was 2.9 µg/mL (≈ 7.78 µM); in [2] (mc^27092 pMV261-desA3, REMA), 2.93 µg/mL (≈ 7.86 µM); in assay [3] (mc^27092 pMV261-hadABC, REMA), 4.34 µg/mL (≈ 11.6 µM). The MIC turned out to be 4.2 µg/mL (≈ 11.3 µM) in [4] (mc^27092 pMV261-mmpL3, REMA); 2.63 µg/mL (≈ 7.06 µM) in [5] (mc^27092 pMV261- ethA, REMA); 3.37 µg/mL (≈ 9.05 µM) in [6] (mc^27092 pMV261-pks13, REMA). In addition, the “increase in resistance on overexpression of MmpL3” value in [4] is reported as around 2 fold.

Consider `CC[C@@H](CO)NCCN[C@@H](CC)CO` [EMB, Ethambutol], for which the MIC in the assay on Mtb mc^28245 pMV261 (setting [7]) came to 1.82 µg/mL (≈ 8.91 µM); in the assay with Mtb mc^28247 pMV261 (setting [7]) it was 1.97 µg/mL (≈ 9.64 µM); in the assay with Mtb mc^28250 pMV261 (setting [7]) it was 1.89 µg/mL (≈ 9.25 µM); in the assay on Mtb mc^28256 pMV261 (mc^28256 pMV261, REMA), 1.88 µg/mL (≈ 9.2 µM); in assay [2] (mc^27092 pMV261-desA3, REMA) it was 2.95 µg/mL (≈ 14.4 µM); in [3] (mc^27092 pMV261-hadABC, REMA), 2.54 µg/mL (≈ 12.4 µM). The MIC in [4] (mc^27092 pMV261-mmpL3, REMA) turned out to be 2.02 µg/mL (≈ 9.89 µM); in assay [5] (mc^27092 pMV261- ethA, REMA), 2.09 µg/mL (≈ 10.2 µM); in [6] (mc^27092 pMV261-pks13, REMA) it was 2 µg/mL (≈ 9.79 µM).

For `CCc1cc(C(N)=S)ccn1` [ETH, ethionamide], the MIC with Mtb mc^28245 pMV261 (setting [8]) was found to be 0.98 µg/mL (≈ 5.89 µM); with Mtb mc^28247 pMV261 (setting [8]), 0.98 µg/mL (≈ 5.89 µM); in the assay with Mtb mc^28250 pMV261 (setting [8]) it was 1.02 µg/mL (≈ 6.14 µM); in the assay on Mtb mc^28256 pMV261 it was 1.08 µg/mL (≈ 6.5 µM); in [2], 1.02 µg/mL (≈ 6.14 µM); in assay [3] it was 2.02 µg/mL (≈ 12.2 µM). For the same compound, the values for the MIC in assay [4], in [5] and in assay [6] were 0.99 µg/mL (≈ 5.95 µM), 0.65 µg/mL (≈ 3.91 µM) and 1.01 µg/mL (≈ 6.08 µM), respectively.

Take `NNC(=O)c1ccncc1` [INH, isoniazid]: the MIC came to 0.04 µg/mL (≈ 0.292 µM) in the assay with Mtb mc^28247 pMV261 (setting [7]); 0.04 µg/mL (≈ 0.292 µM) in assay [2] (mc^27092 pMV261-desA3, REMA); 0.04 µg/mL (≈ 0.292 µM) in assay [3] (mc^27092 pMV261-hadABC, REMA); 0.04 µg/mL (≈ 0.292 µM) in assay [4] (mc^27092 pMV261-mmpL3, REMA); 0.04 µg/mL (≈ 0.292 µM) in assay [5] (mc^27092 pMV261- ethA, REMA); 0.04 µg/mL (≈ 0.292 µM) in assay [6] (mc^27092 pMV261-pks13, REMA).

Take `CC(C)CCOc1ccc(NC(=S)Nc2ccc(OCCC(C)C)cc2)cc1` [ISO, 4,4′-diisoamyloxydiphenylthiourea]: the MIC in the assay with Mtb mc^28245 pMV261 (setting [7]) was 0.18 µg/mL (≈ 0.449 µM); in the assay on Mtb mc^28247 pMV261 (setting [7]) it was 0.34 µg/mL (≈ 0.849 µM); in the assay with Mtb mc^28250 pMV261 (setting [7]), 0.2 µg/mL (≈ 0.499 µM); in the assay on Mtb mc^28256 pMV261 (mc^28256 pMV261, REMA), 0.19 µg/mL (≈ 0.474 µM); in [2] (mc^27092 pMV261-desA3, REMA) it was 0.26 µg/mL (≈ 0.649 µM); in assay [3] (mc^27092 pMV261-hadABC, REMA), 0.71 µg/mL (≈ 1.77 µM). Also, the MIC in assay [4] (mc^27092 pMV261-mmpL3, REMA) came out at 0.21 µg/mL (≈ 0.524 µM); in assay [5] (mc^27092 pMV261- ethA, REMA), 0.09 µg/mL (≈ 0.225 µM); in assay [6] (mc^27092 pMV261-pks13, REMA) it was 0.34 µg/mL (≈ 0.849 µM).

In the case of `CC(=O)NC[C@H]1CN(c2ccc(N3CCOCC3)c(F)c2)C(=O)O1` [LZD, linezolid], the MIC in the assay with Mtb mc^28245 pMV261 (setting [7]) stood at 0.9 µg/mL (≈ 2.67 µM); in the assay on Mtb mc^28247 pMV261 (setting [7]) it was 0.88 µg/mL (≈ 2.61 µM); in the assay on Mtb mc^28250 pMV261 (setting [7]), 0.77 µg/mL (≈ 2.28 µM); in the assay with Mtb mc^28256 pMV261 (mc^28256 pMV261, REMA), 0.66 µg/mL (≈ 1.96 µM); in assay [3] (mc^27092 pMV261-hadABC, REMA), 0.72 µg/mL (≈ 2.13 µM); in assay [4] (mc^27092 pMV261-mmpL3, REMA) it was 0.86 µg/mL (≈ 2.55 µM). Also, the MIC in assay [6] (mc^27092 pMV261-pks13, REMA) was found to be 0.93 µg/mL (≈ 2.76 µM).

`CO[C@H]1/C=C/O[C@@]2(C)Oc3c(C)c(O)c4c(O)c(c(/C=N/N5CCN(C)CC5)c(O)c4c3C2=O)NC(=O)/C(C)=C\C=C\[C@H](C)[C@H](O)[C@@H](C)[C@@H](O)[C@@H](C)[C@H](OC(C)=O)[C@@H]1C` [RIF, rifampicin]: the MIC in the assay on Mtb mc^28245 pMV261 (setting [7]) stood at 0.05 µg/mL (≈ 0.0608 µM); in assay [2] (mc^27092 pMV261-desA3, REMA), 0.06 µg/mL (≈ 0.0729 µM); in [3] (mc^27092 pMV261-hadABC, REMA), 0.06 µg/mL (≈ 0.0729 µM); in assay [4] (mc^27092 pMV261-mmpL3, REMA), 0.06 µg/mL (≈ 0.0729 µM); in assay [5] (mc^27092 pMV261- ethA, REMA), 0.06 µg/mL (≈ 0.0729 µM); in assay [6] (mc^27092 pMV261-pks13, REMA), 0.06 µg/mL (≈ 0.0729 µM).

As to `CC(C)=CCC/C(C)=C/CNCCNC1C2CC3CC(C2)CC1C3` (stereo not shown) [SQ109, N-Adamantan-2-yl-N’-((E)-3,7-dimethylocta-2,6-dienyl)ethane-1,2-diamine], the MIC with Mtb mc^28245 pMV261 (setting [7]) was found to be 0.31 µg/mL (≈ 0.938 µM); in the assay with Mtb mc^28247 pMV261 (setting [7]), 0.3 µg/mL (≈ 0.908 µM); with Mtb mc^28250 pMV261 (setting [7]), 0.3 µg/mL (≈ 0.908 µM); in the assay on Mtb mc^28256 pMV261 (mc^28256 pMV261, REMA), 0.27 µg/mL (≈ 0.817 µM); in [3] (mc^27092 pMV261-hadABC, REMA) it was 0.31 µg/mL (≈ 0.938 µM); in assay [4] (mc^27092 pMV261-mmpL3, REMA) it was 0.74 µg/mL (≈ 2.24 µM). In addition, the MIC in assay [6] (mc^27092 pMV261-pks13, REMA) is 0.31 µg/mL (≈ 0.938 µM).
